For assay [1], the system named is Candida albicans. Put plainly: Antifungal activity against Candida albicans AMB-25 incubated for 48 hrs by serial two-fold dilution method. The assay is classed as functional.
The test system of assay [2] is Candida albicans. Briefly: Antifungal activity against Candida albicans ATCC 262 incubated for 24 hrs by turbidimetric method. The assay is classed as functional.
Assay [3] deals with Candida albicans. Briefly: Antifungal activity against Candida albicans incubated for 24 hrs by turbidimetric method. The class given is functional.
The subject of assay [4] is Candida albicans. Put plainly: Antifungal activity against Candida albicans K335 by agar incorporation method. The assay is classed as functional.
Assay [5] deals with Candida albicans. Briefly: Antifungal activity against Candida albicans K1082 by agar incorporation method. The assay is classed as functional.
For assay [6], the system named is Pichia kudriavzevii. Put plainly: Antifungal activity against Candida krusei K1153 by agar incorporation method. The class given is functional.
For assay [7], the system named is Candida tropicalis. Put plainly: Antifungal activity against Candida tropicalis K1155 by agar incorporation method. The class given is functional.
For assay [8], the system named is Candida parapsilosis. Put plainly: Antifungal activity against Candida parapsilosis K332 by agar incorporation method. The assay is classed as functional. To be noted: Lodderomyces parapsilosis.
In assay [9] the test system is Meyerozyma guilliermondii. Put plainly: Antifungal activity against Candida guilliermondii K334 by agar incorporation method. The class given is functional.
Assay [10] has as its system Candida albicans. Briefly: Antifungal activity against Candida albicans K341 by agar incorporation method. The assay is classed as functional.
For assay [11], the system named is Candida tropicalis. Briefly: Antifungal activity against Candida tropicalis K337 by agar incorporation method. The assay is classed as functional.
In assay [12] the test system is Candida albicans. Put plainly: Antifungal activity against Candida albicans K1133 by agar incorporation method. The assay is classed as functional.
The test system of assay [13] is Candida parapsilosis. Briefly: Antifungal activity against Candida parapsilosis K1154 by agar incorporation method. The assay is classed as functional. To be noted: Lodderomyces parapsilosis.
Assay [14] has as its system Cyberlindnera jadinii. Briefly: Antifungal activity against Candida utilis K482 by agar incorporation method. The assay is classed as functional. To be noted: Williopsis jadinii.
For assay [15], the system named is Candida albicans. Briefly: Antifungal activity against Candida albicans Ca2323/ORF6.945 by CLSI method. The assay is classed as functional.
Assay [16] relates to Candida parapsilosis. Briefly: Antifungal activity against Candida parapsilosis ATCC22019 by CLSI method. The class given is functional. To be noted: Lodderomyces parapsilosis.
Assay [17] relates to Candida albicans. Put plainly: Antifungal activity against Candida albicans Ca1055 by CLSI method. The class given is functional.
The nature of assay [18]: Inhibition of Candida albicans IFO1060 1,3-beta-D-glucan synthase.
A short description of assay [19]: Inhibition of fungi 1,3-beta-D-glucan synthase.
For assay [20], the system named is Aspergillus fumigatus. Briefly: Antifungal activity against Aspergillus fumigatus CF1083 infected in iv dosed mouse model of pulmonary aspergillosis administered once daily for 4 days and measured on day 14. The assay is classed as functional. To be noted: 336 h, time 14 day.

Values after ≈ are worked out from the molar mass of the structure shown. Square brackets hold non-standard residues; d marks the D form. Peptide text beside a SMILES is read from it. * marks the point of attachment. Fumaryl(OMe) = COC(=O)/C=C/C(=O)*; Dap = NC[C@H](N)C(=O)O

A word on the MIC: it is the lowest concentration found to suppress growth. In general, IC50 refers to the concentration that inhibits the measured activity by half. One may read the ED50 as the dose at which the effect has come halfway, by size or by number of responders. High values mean weaker potency, low ones greater potency.

Regarding `COC(=O)/C=C/C(=O)NC[C@H](NC(=O)[C@H](N)C(C)C)C(=O)O`, the MIC in assay [1] turned out to be 0.4 µg/mL (≈ 1.27 µM).

For the compound `COC(=O)/C=C/C(=O)NC[C@H](NC(=O)[C@@H](N)CCSC)C(=O)N[C@@H](CCSC)C(=O)O`, the minimal inhibitory concentration (MIC) in [2] and in assay [3] was 0.025 µg/mL (≈ 0.0522 µM) each time.

As to `CCCCC/C=C/C=C/C(=O)OC[C@H]1O[C@@H](O[C@H]2[C@H](OC(=O)/C=C/C=C/C[C@H](O)/C(C)=C/C=C/CC[C@@H](C)CC)[C@@H](O)[C@@]3(OCc4cc(O)cc(O)c43)O[C@@H]2CO)[C@H](O)[C@@H](O)[C@H]1O`, the MIC in [4], in assay [5], in [6], in assay [7], in [8] and in assay [9] was 0.1 µg/mL (≈ 0.113 µM) throughout. The MIC in assay [10], in assay [11], in assay [12], in assay [13] and in [14] was 0.1 µg/mL (≈ 0.113 µM) throughout.

`CC[C@H](C)CC/C=C/C=C(\C)[C@@H](O)C/C=C/C=C/C(=O)O[C@H]1[C@H](O)[C@@H](CO)O[C@]2(OCc3cc(O)cc(O)c32)[C@@H]1O`: the MIC in assay [4], in assay [5], in [6], in [7], in assay [8] and in [9] was 0.1 µg/mL (≈ 0.174 µM) each time. In addition, the MIC in [10], in assay [11], in [12], in [13] and in assay [14] was 0.1 µg/mL (≈ 0.174 µM) in each case.

With `COC(=O)/C=C/C(=O)NC[C@H](NC(=O)CN)C(=O)O`, the MIC in [1] was determined as 0.4 µg/mL (≈ 1.46 µM).

Regarding `COC(=O)/C=C/C(=O)NC[C@H](NC(=O)[C@H](C)NC(=O)[C@@H](N)CCSC)C(N)=O`, the MIC in assay [2] and in assay [3] was 0.025 µg/mL (≈ 0.0599 µM) each time.

Regarding `CCCC(C)Oc1cccc(NC(=O)c2cccnc2)c1` (stereo not drawn), the minimum inhibitory concentration (MIC) in [15] is 4 µg/mL (≈ 14.1 µM); in [16], 8 µg/mL (≈ 28.1 µM); in assay [17], 4 µg/mL (≈ 14.1 µM).

Compound `COC(=O)/C=C/C(=O)NC[C@H](NC(=O)[C@H](N)CCSC)C(=O)O` displayed an MIC in [1] of 0.4 µg/mL (≈ 1.15 µM).

Turning to `CCCC(NC(=O)[C@@H](N)CCSC)C(=O)N[C@@H](CNC(=O)/C=C/C(=O)OC)C(N)=O` (stereo partly drawn), the MIC in [2] and in [3] was 0.025 µg/mL (≈ 0.0561 µM) each time.

Consider `CCCCCCCCCCCCC[C@H]1OC(=O)[C@H](CCCN(CCN)CCN)NC(=O)[C@@H]([C@@H](C)O)NC(=O)CNC(=O)[C@H]([C@H](O)CC(N)=O)NC(=O)[C@H]2[C@@H](O)CCN2C(=O)[C@H]([C@@H](C)O)NC(=O)[C@@H]2C[C@@H](O)CN2C(=O)[C@H](C(C)C)NC(=O)[C@H](Cc2ccc(O)cc2)NC(=O)[C@@H](C)NC(=O)[C@H]([C@@H](C)O)NC1=O`, for which the IC50 in assay [18] was 2 nM.

In assay [1], `CCCC(NC(=O)[C@@H](N)CNC(=O)/C=C/C(=O)OC)C(=O)O` (stereo partly drawn) displayed an MIC of 0.4 µg/mL (≈ 1.27 µM).

Take `COC(=O)/C=C/C(=O)NC[C@H](N)C(=O)N[C@H](C(=O)O)C(C)C`: the MIC in assay [1] is 0.4 µg/mL (≈ 1.27 µM).

Take `COC(=O)/C=C/C(=O)NC[C@H](N)C(=O)N[C@@H](C)C(=O)O`: the minimal inhibitory concentration (MIC) in assay [1] was 0.4 µg/mL (≈ 1.39 µM).

On to `COC(=O)/C=C/C(=O)NC[C@H](NC(=O)[C@@H](C)N)C(=O)O`, for which, in [1], inhibition of growth (MIC) required 0.4 µg/mL (≈ 1.39 µM).

`COC(=O)/C=C/C(=O)NC[C@H](NC(=O)[C@H](CCSC)NC(=O)[C@@H](N)CCSC)C(N)=O`: the MIC in [2] and in assay [3] was 0.025 µg/mL (≈ 0.0523 µM) throughout.

Compound `COC(=O)/C=C/C(=O)NC[C@H](NC(=O)[C@H](N)CC(C)C)C(=O)O` showed an MIC in assay [1] of 0.4 µg/mL (≈ 1.21 µM).

For `CCCCCCCCCCCCC[C@H]1OC(=O)[C@H](CCCN(CCCN)C(=O)[C@H](CCCN)N(CCN)CCN)NC(=O)[C@@H]([C@@H](C)O)NC(=O)CNC(=O)[C@H]([C@H](O)CC(N)=O)NC(=O)[C@H]2[C@@H](O)CCN2C(=O)[C@H]([C@@H](C)O)NC(=O)[C@@H]2C[C@@H](O)CN2C(=O)[C@H](C(C)C)NC(=O)[C@H](Cc2ccc(O)cc2)NC(=O)[C@@H](C)NC(=O)[C@H]([C@@H](C)O)NC1=O`, it took 0.25 nM to reach half-maximal inhibition in assay [19] (IC50). The compound also registered an ED50 in assay [20] of 5.2 mg/kg.

Consider `COC(=O)/C=C/C(=O)NC[C@H](NC(=O)[C@H](CCSC)NC(=O)[C@H](CCSC)NC(=O)[C@H](CCSC)NC(=O)[C@@H](N)CCSC)C(=O)O` (H-MMMM[Dap](Fumaryl(OMe))-OH), for which the MIC in assay [2] and in [3] was 0.025 µg/mL (≈ 0.0337 µM) in each case.

As for `COC(=O)/C=C/C(=O)NC[C@H](NC(=O)[C@H](CCSC)NC(=O)[C@H](CCSC)NC(=O)[C@@H](N)CNC(=O)/C=C/C(=O)OC)C(=O)O` (H-[Dap](Fumaryl(OMe))MM[Dap](Fumaryl(OMe))-OH), the MIC in [2] and in [3] was 0.025 µg/mL (≈ 0.0369 µM) in each case.

Source of the values: ChEMBL document CHEMBL4715849, “Recent Progress in the Discovery of Antifungal Agents Targeting the Cell Wall” (J Med Chem, 2020).
